The structures appear in SMILES notation.

Experimental findings from US20060148858A1, “1, 2-Azole derivatives with hypoglycemic and hypolipidemic activity” (priority 2002, published 2006) are described below.

A word on the melting point: it is the temperature, or range, at which the solid turns liquid. `CC(C)c1nn(-c2ccc(C(F)(F)F)cn2)cc1CCCCOc1ccc(CCC(=O)O)cc1` [Example 55, 3-[4-(4-{3-isopropyl-1-[5-(trifluoromethyl)-2-pyridinyl]-1H-pyrazol-4-yl}butoxy)phenyl]propanoic acid]: the melting point fell in the range of 144 to 145 °C.
Then `CCOc1nn(-c2ccc(C(F)(F)F)cc2)cc1CCCOc1ccc(CCC(=O)O)cc1OC` [Example 115, 3-[4-(3-{3-ethoxy-1-[4-(trifluoromethyl)phenyl]-1H-pyrazol-4-yl}propoxy)-3-methoxyphenyl]propanoic acid], with 125 to 126 °C; and `COc1ccc(OC(C)(C)C(=O)O)cc1OCCCc1cn(-c2ccc(C(F)(F)F)cn2)nc1C(C)C` [Example 376, 2-[3-(3-{3-isopropyl-1-[5-(trifluoromethyl)-2-pyridinyl]-1H-pyrazol-4-yl}propoxy)-4-methoxyphenoxy]-2-methylpropanoic acid], with 106 to 107 °C.
The figure for `CCOc1nn(-c2ccc(C(F)(F)F)cn2)cc1CCCOc1cccc(OC)c1CCC(=O)O` [Example 148, 3-[2-(3-{3-ethoxy-1-[5-(trifluoromethyl)-2-pyridyl]-1H-pyrazol-4-yl}propoxy)-6-methoxyphenyl]propionic acid] is 110 to 111 °C.
Then `O=C(O)Cc1ccccc1OCc1cn(-c2ccc(C(F)(F)F)cn2)nc1C1CCCCC1` [Example 188, [2-({3-cyclohexyl-1-[5-(trifluoromethyl)-2-pyridyl]-1H-pyrazol-4-yl}methoxy)phenyl]acetic acid], with 131 to 132 °C; and `CC(C)c1nn(-c2ccc(C(F)(F)F)cn2)cc1CCCOc1cc(CCC(=O)O)n(C2CCCCC2)n1` [Example 262, 3-[1-cyclohexyl-3-(3-{3-isopropyl-1-[5-(trifluoromethyl)-2-pyridyl]-1H-pyrazol-4-yl}propoxy)-1H-pyrazol-5-yl]propanoic acid], with 166 to 167 °C.
Turning to `CCOc1cc(OCCCc2cn(-c3ccc(C(F)(F)F)cn3)nc2OCc2ccccc2)ccc1CCC(=O)O` [Example 156, 3-[4-(3-{3-benzyloxy-1-[5-(trifluoromethyl)-2-pyridyl]-1H-pyrazol-4-yl}propoxy)-2-ethoxyphenyl]propanoic acid], the melting point fell in the range of 106 to 107 °C.
The figure for `CCOc1nn(-c2ccc(C(F)(F)F)cn2)cc1CCOc1cc(CC(=O)O)n(C)n1` [Example 284, [3-(2-{3-ethoxy-1-[5-(trifluoromethyl)-2-pyridinyl]-1H-pyrazol-4-yl}ethoxy)-1-methyl-1H-pyrazol-5-yl]acetic acid] is 156 to 158 °C; for `CCCc1nn(-c2ccc(C(F)(F)F)cn2)cc1CCCOc1ccccc1CCC(=O)O` [Example 83, 3-[2-(3-{3-propyl-1-[5-(trifluoromethyl)-2-pyridyl]-1H-pyrazol-4-yl}propoxy)phenyl]propionic acid] it is 87 to 88 °C; for `CCCc1nn(-c2ccc(C(F)(F)F)cn2)cc1CCCOc1ccccc1CC(=O)O` [Example 47, [2-(3-{3-propyl-1-[5-(trifluoromethyl)-2-pyridyl]-1H-pyrazol-4-yl}propoxy)phenyl]acetic acid] it is 100 to 101 °C.
For `CCOc1nn(-c2ccc(C(F)(F)F)cn2)cc1CCCOc1ccccc1CCC(=O)O` [Example 144, 3-[2-(3-{3-ethoxy-1-[5-(trifluoromethyl)-2-pyridyl]-1H-pyrazol-4-yl}propoxy)phenyl]propionic acid], the melting point was in the range of 93 to 94 °C.
Then `COc1cccc(CC(=O)O)c1OCCCc1cn(-c2ccc(NC(C)=O)cn2)nc1C(C)C` [Example 265, (2-{3-[1-(5-acetylamino-2-pyridyl)-3-isopropyl-1H-pyrazol-4-yl]propoxy}-3-methoxyphenyl)acetic acid], with 158 to 159 °C; and `CCOc1nn(-c2cc(C(F)(F)F)ccn2)cc1CCCOc1ccccc1CC(=O)O` [Example 288, [2-(3-{3-ethoxy-1-[4-(trifluoromethyl)-2-pyridinyl]-1H-pyrazol-4-yl}propoxy)phenyl]acetic acid], with 121 to 122 °C.
